According to patent publication US9365574B2, “Soluble guanylate cyclase activators” (Merck Sharp & Dohme Corp., priority 2010, dated 2016):

Tested on: Spontaneously hypertensive rats (SHR)
Assay: Acute Efficacy in Spontaneously Hypertensive Rats (SHR), telemetry blood pressure
Type: in vivo, rat
How it was run: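 Male SHR with aortic telemetry catheters, 14-day recovery, conscious and freely moving; single oral gavage in 10% transcutol/20% Cremophor/70% water. BP sampled 30 s every 10 min, hourly averages minus prior-day vehicle baseline; value is maximum peak SBP decrease at stated mg/kg PO dose.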

SMILES | Maximum peak decrease of systolic blood pressure (SBP) in SHR, Category (single oral dose 0.3 mpk P.O.) | Maximum peak decrease of systolic blood pressure (SBP) in SHR, Category (single oral dose 1 mpk P.O.)
Nc1nc(-c2nn(CCCC(F)(F)F)c3ncccc23)nc2c1C(C(=O)NC1CC1)(C1CC1)C(=O)N2 (stereo not shown) [Example 246, 4-amino-N,5-dicyclopropyl-6-oxo-2-[1-(4,4,4-trifluorobutyl)-1H-pyrazolo[3,4-b]pyridin-3-yl]-6,7-dihydro-5H-pyrrolo[2,3-d]pyrimidine-5-carboxamide] | C (Category C=SBP in SHRs>40 mmHg) | 
NC(=O)C1(C2CC2)C(=O)Nc2nc(-c3nn(CCCC(F)(F)F)c4ncccc34)nc(N)c21 (stereo not shown) [Example 247, 4-amino-5-cyclopropyl-6-oxo-2-[1-(4,4,4-trifluorobutyl)-1H-pyrazolo[3,4-b]pyridin-3-yl]-6,7-dihydro-5H-pyrrolo[2,3-d]pyrimidine-5-carboxamide] |  | C (Category C=SBP in SHRs>40 mmHg)
CC1(c2nc(C(F)(F)F)no2)C(=O)Nc2nc(-c3nc(CCCC(F)(F)F)n4cc(F)ccc34)nc(N)c21 (stereo not shown) [Example 248, 4-amino-2-[6-fluoro-3-(4,4,4-trifluorobutyl)imidazo[1,5-a]pyridin-1-yl]-5-methyl-5-[3-(trifluoromethyl)-1,2,4-oxadiazol-5-yl]-5,7-dihydro-6H-pyrrolo[2,3-d]pyrimidin-6-one] | B (Category B=SBP in SHRs 25-40 mmHg) | 
Cc1nc(C2(C)C(=O)Nc3nc(-c4nc(CCCC(F)(F)F)n5cc(Cl)ccc45)nc(N)c32)no1 (stereo not shown) [Example 249, 4-amino-2-[6-chloro-3-(4,4,4-trifluorobutyl)imidazo[1,5-a]pyridin-1-yl]-5-methyl-5-(5-methyl-1,2,4-oxadiazol-3-yl)-5,7-dihydro-6H-pyrrolo[2,3-d]pyrimidin-6-one] |  | A (Category A=SBP in SHRs<25 mmHg)
CC1(C(=O)NC2CC2)C(=O)Nc2nc(-c3nc(CCC(F)(F)C(F)(F)F)n4cc(Cl)ccc34)nc(N)c21 (stereo not shown) [Example 250, 4-amino-2-[6-chloro-3-(3,3,4,4,4-pentafluorobutyl)imidazo[1,5-a]pyridin-1-yl]-H-cyclopropyl-5-methyl-6-oxo-6,7-dihydro-5H-pyrrolo[2,3-d]pyrimidine-5-carboxamide] |  | C (Category C=SBP in SHRs>40 mmHg)
CC1(C(=O)NC2CC2)C(=O)Nc2nc(-c3nc(CCC(F)(F)C(F)(F)F)n4ncccc34)nc(N)c21 (stereo not shown) [Example 251, 4-amino-H-cyclopropyl-5-methyl-6-oxo-2-[7-(3,3,4,4,4-pentafluorobutyl)imidazo[1,5-b]pyridazin-5-yl]-6,7-dihydro-5H-pyrrolo[2,3-d]pyrimidine-5-carboxamide] | C (Category C=SBP in SHRs>40 mmHg) | 
CC1(C(=O)NC2CC2)C(=O)Nc2nc(-c3nc(CCC(F)(F)C(F)(F)F)n4cc(F)ccc34)nc(N)c21 (stereo not shown) [Example 252, 4-amino-H-cyclopropyl-2-[6-fluoro-3-(3,3,4,4,4-pentafluorobutyl)imidazo[1,5-a]pyridin-1-yl]-5-methyl-6-oxo-6,7-dihydro-5H-pyrrolo[2,3-d]pyrimidine-5-carboxamide] | B (Category B=SBP in SHRs 25-40 mmHg) | 
CC1(C(=O)Nc2cccnc2)C(=O)Nc2nc(-c3nc(CCC(F)(F)C(F)(F)F)n4cc(F)ccc34)nc(N)c21 (stereo not shown) [Example 253, 4-amino-2-[6-fluoro-3-(3,3,4,4,4-pentafluorobutyl)imidazo[1,5-a]pyridin-1-yl]-5-methyl-6-oxo-H-pyridin-3-yl-6,7-dihydro-5H-pyrrolo[2,3-d]pyrimidine-5-carboxamide] | A (Category A=SBP in SHRs<25 mmHg) | 
CC1(C(N)=O)C(=O)Nc2nc(-c3nc(CCC(F)(F)C(F)(F)F)n4ncccc34)nc(N)c21 (stereo not shown) [Example 254, 4-amino-5-methyl-6-oxo-2-[7-(3,3,4,4,4-pentafluorobutyl)imidazo[1,5-b]pyridazin-5-yl]-6,7-dihydro-5H-pyrrolo[2,3-d]pyrimidine-5-carboxamide] |  | B (Category B=SBP in SHRs 25-40 mmHg)
CC1(c2nnc(C3CC3)o2)C(=O)Nc2nc(-c3nc(CCC(F)(F)C(F)(F)F)n4ncccc34)nc(N)c21 (stereo not shown) [Example 255, 4-amino-5-(5-cyclopropyl-1,3,4-oxadiazol-2-yl)-5-methyl-2-[7-(3,3,4,4,4-pentafluorobutyl)imidazo[1,5-b]pyridazin-5-yl]-5,7-dihydro-6H-pyrrolo[2,3-d]pyrimidin-6-one] | B (Category B=SBP in SHRs 25-40 mmHg) | 
CC1(C(=O)NC2CC2)C(=O)Nc2nc(-c3nc(CCC(F)(F)F)n4ncccc34)nc(N)c21 (stereo not shown) [Example 256, 4-amino-H-cyclopropyl-5-methyl-6-oxo-2-[7-(3,3,3-trifluoropropyl)imidazo[1,5-b]pyridazin-5-yl]-6,7-dihydro-5H-pyrrolo[2,3-d]pyrimidine-5-carboxamide] | B (Category B=SBP in SHRs 25-40 mmHg) | 
CNc1nc(-c2nn(CCC(F)(F)C(F)(F)F)c3cc(Cl)ccc23)nc2c1C(C)(C(=O)NC1CC1)C(=O)N2 (stereo not shown) [Example 257, 2-[6-chloro-1-(3,3,4,4,4-pentafluorobutyl)-1H-indazol-3-yl)-N-cyclopropyl-5-methyl-4-(methylamino)-6-oxo-6,7-dihydro-5H-pyrrolo[2,3-d]pyrimidine-5-carboxamide] | A (Category A=SBP in SHRs<25 mmHg) | 
CNC(=O)C1(C)C(=O)Nc2nc(-c3nn(CCC(F)(F)C(F)(F)F)c4cc(Cl)ccc34)nc(NC)c21 (stereo not shown) [Example 258, 2-[6-chloro-1-(3,3,4,4,4-pentafluorobutyl)-1H-indazol-3-yl]-N,5-dimethyl-4-(methylamino)-6-oxo-6,7-dihydro-5H-pyrrolo[2,3-d]pyrimidine-5-carboxamide] | A (Category A=SBP in SHRs<25 mmHg) | 
CNC(=O)C1(C)C(=O)Nc2nc(-c3nn(CCC(F)(F)C(F)(F)F)c4ncccc34)nc(NC)c21 (stereo not shown) [Example 259, N,5-dimethyl-4-(methylamino)-6-oxo-2-[1-(3,3,4,4,4-pentafluorobutyl)-1H-pyrazolo[3,4-b]pyridin-3-yl]-6,7-dihydro-5H-pyrrolo[2,3-d]pyrimidine-5-carboxamide] | A (Category A=SBP in SHRs<25 mmHg) | 
CNc1nc(-c2nc(CCC(F)(F)C(F)(F)F)n3ncccc23)nc2c1C(C)(C(=O)NC1CC1)C(=O)N2 (stereo not shown) [Example 260, N-cyclopropyl-5-methyl-4-(methylamino)-6-oxo-2-[7-(3,3,4,4,4-pentafluorobutyl)imidazo[1,5-b]pyridazin-5-yl]-6,7-dihydro-5H-pyrrolo[2,3-d]pyrimidine-5-carboxamide] | B (Category B=SBP in SHRs 25-40 mmHg) | 
CNc1nc(-c2nn(CCC(F)(F)C(F)(F)F)c3ncccc23)nc2c1C(C)(c1nnc(C3CC3)o1)C(=O)N2 (stereo not shown) [Example 261, 5-(5-cyclopropyl-1,3,4-oxadiazol-2-yl)-5-methyl-4-(methylamino)-2-[1-(3,3,4,4,4-pentafluorobutyl)-1H-pyrazolo[3,4-b]pyridin-3-yl]-5,7-dihydro-6H-pyrrolo[2,3-d]pyrimidin-6-one] | C (Category C=SBP in SHRs>40 mmHg) | 
CNc1nc(-c2nn(CCC(F)(F)C(F)(F)F)c3ncccc23)nc2c1C(C(=O)NC1CC1)(C1CC1)C(=O)N2 (stereo not shown) [Example 262, N,5-dicyclopropyl-4-(methylamino)-6-oxo-2-[1-(3,3,4,4,4-pentafluorobutyl)-1H-pyrazolo[3,4-b]pyridin-3-yl]-6,7-dihydro-5H-pyrrolo[2,3-d]pyrimidine-5-carboxamide] | A (Category A=SBP in SHRs<25 mmHg) | 
CNc1nc(-c2nn(CCC(F)(F)F)c3ncccc23)nc2c1C(C)(C(=O)NC1CC1)C(=O)N2 (stereo not shown) [Example 263, N-cyclopropyl-5-methyl-4-(methylamino)-6-oxo-2-[1-(3,3,3-trifluoropropyl)-1H-pyrazolo[3,4-b]pyridin-3-yl]-6,7-dihydro-5H-pyrrolo[2,3-d]pyrimidine-5-carboxamide] | A (Category A=SBP in SHRs<25 mmHg) | 
CNc1nc(-c2nn(CCCC(F)(F)F)c3ncccc23)nc2c1C(C)(C(=O)NC1CC1)C(=O)N2 (stereo not shown) [Example 264, N-cyclopropyl-5-methyl-4-(methylamino)-6-oxo-2-[1-(4,4,4-trifluorobutyl)-1H-pyrazolo[3,4-b]pyridin-3-yl]-6,7-dihydro-5H-pyrrolo[2,3-d]pyrimidine-5-carboxamide] | B (Category B=SBP in SHRs 25-40 mmHg) | 
CN(C)C(=O)C1(C)C(=O)Nc2nc(-n3nc(CCC(F)(F)C(F)(F)F)c4cc(Cl)ccc43)nc(N)c21 (stereo not shown) [Example 265, 4-amino-2-[5-chloro-3-(3,3,4,4,4-pentafluorobutyl)-1H-indazol-1-yl]-N,N,5-trimethyl-6-oxo-6,7-dihydro-5H-pyrrolo[2,3-d]pyrimidine-5-carboxamide] |  | C (Category C=SBP in SHRs>40 mmHg)
CC1(C(=O)NC2CC2)C(=O)Nc2nc(-n3nc(CCC(F)(F)C(F)(F)F)c4ncccc43)nc(N)c21 (stereo not shown) [Example 266, 4-amino-N-cyclopropyl-5-methyl-6-oxo-2-[3-(3,3,4,4,4-pentafluorobutyl)-1H-pyrazolo[4,3-b]pyridin-1-yl]-6,7-dihydro-5H-pyrrolo[2,3-d]pyrimidine-5-carboxamide] | C (Category C=SBP in SHRs>40 mmHg) | 
CC1(C(=O)NC2CC2)C(=O)Nc2nc(-c3nn(CCC(F)(F)C(F)(F)F)c4ncc(Cl)cc34)nc(N)c21 (stereo not shown) [Example 267, 4-amino-2-[5-chloro-1-(3,3,4,4,4-pentafluorobutyl)-1H-pyrazolo[3,4-b]pyridin-3-yl]-N-cyclopropyl-5-methyl-6-oxo-6,7-dihydro-5H-pyrrolo[2,3-d]pyrimidine-5-carboxamide] | B (Category B=SBP in SHRs 25-40 mmHg) | 
